Reference: patent publication US20030105043A1, “Apoptosis-inducing ribozymes” (priority 2000, published 2003)

Assays:
[1] = tested on: rat MT-I cRNA; assay: cell-free ribozyme cleavage of labeled rat MT-I cRNA; format: biochemical; conditions: for cleavage activity on rat MT-I cRNA: cell-free, excess unlabeled ribozyme, 37° C., 16 hours
Text: (§1) Bluescript plasmids containing the rat MT cDNA (pBSMT-I and pBSMT-2) were constructed as described above. A plasmid containing the mouse MT-I (pSP-MT-I) and a second plasmid (SDF 102.C1) containing MT-II cDNA (Durnam et al., 1980, Proc. Natl. Acad. Sci. USA 77:6511-6515) were linearized with HindIII and in vitro transcribed into labeled MT cRNAs with [α-32P]UTP, T3 RNA polymerase (Promega, Madison, Wis.), and the Maxiscript In Vitro Transcription Kit (Ambion, Inc, Austin, Tex.). Ribozymes were generated as unlabeled molecules from pRz1-2 and pRz4-9 using either the T3 or T7 promoter of the pClneo vectors, and unlabeled nucleoside triphosphates.
(§2) To test ribozyme activity, radiolabeled rat metallothionein cRNAs were synthesized by in vitro transcription from linearized plasmids and incubated with an excess of unlabeled ribozymes at 37° C. for 16 hours. The enzymatic activity was terminated with an equal volume of stop buffer. After denaturing at 95° C. for 2 minutes, the cleavage products were separated in a 6% polyacrylamide/8M urea gel, dried and exposed to X-ray film to obtain autoradiograms. The uncut rat MT-I (poly A) and MT-II (poly A) molecules were 435 nucleotides and 350 nucleotides, respectively. Rz1-2-mediated cleavage fragments of rat MT-I(poly A) were 360 nucleotides and 115 nucleotides in length. The cleavage fragments produced by Rz4-9 activity on MT-II(polyA) were 260 nucleotides and 90 nucleotides in length.
(§3) Initial experiments were designed to determine effective and linear catalytic temperature ranges for Rz1-2 and Rz4-9. A ribozyme and a labeled substrate were mixed in a 1:1 molar ratio in a 10 μL reaction mixture composed of 40 mM Tris-HCl (pH 7.5) and 20 mM MgCl2 (previously determined to be optimal for cleavage activity). The reaction mixture was denatured for 2 minutes at 95° C. and then snapcooled on ice for 5 minutes. Catalytic reactions were conducted at 25° C., 37° C., and 50° C. for 1, 3, or 16 hours. […] An excess of unlabeled anti-MT Rzs (Rz1-2 and Rz4-9) and their corresponding mutants (Rz2-6 and Rz3-3) were mixed with labeled rat or mouse MT-I or MT-II cRNA and incubated at 37° C. for 16 hours. At the end of these experiments, all catalytic reactions were terminated with an equal volume of stop buffer (10 mM EDTA, 90% formamide, 0.1% bromophenol blue, and 0.1% xylene cyanol). After denaturing at 95° C. for 2 minutes, the cleavage products were separated in a 6% polyacrylamide/8M urea gel, dried, and exposed to X-ray film to obtain autoradiograms. The sizes of the uncut rat MT-I (poly A) and MT-II (poly A) molecules were 435 nucleotides and 350 nucleotides, respectively. Rz1-2-mediated cleavage fragments of rat MT-I(poly A) were of 360 nucleotides and 115 nucleotides in length and those produced by Rz4-9 activity on MT-II(polyA) were 260 nucleotides and 90 nucleotides. Incubation with the mutant Rzs, Rz2-6 or Rz3-3, produced no products.
(§4) Hammerhead ribozymes were tested for specific endonuclease activity under cell-free conditions. In vitro transcription from pBSMT-I and pBSMT-II using 2.5 μg HindIII linearized plasmid and T3 RNA polymerase yielded 5 μg of rat MT-I and MT-II cRNA. In parallel, mouse MT-I and MT-II cRNA were generated from plasmids containing mouse MT sequences (pSP-MT-I). These molecules containing the entire metallothionein coding region and a poly (A) tail 435 nucleotides (rat MT-I cRNA), 350 nucleotides (rat MT-II cRNA), 380 nucleotides ([…]) and 460 nucleotides ([…]) in length. They were used as substrate for the ribozyme reactions. […] Similar sequence specificity data were obtained for mouse metallothionein cRNAs. All cleavage products were of the predicted sizes.

[2] = tested on: rat MT-II cRNA; assay: cell-free ribozyme cleavage of labeled rat MT-II cRNA; format: biochemical; conditions: for cleavage activity on rat MT-II cRNA: cell-free, excess unlabeled ribozyme, 37° C., 16 hours
Text: as §1, §2, §3, §4

[3] = cell-free cleavage, 1:1 molar ratio

| Substance | cleavage activity on rat MT-I cRNA [1] | optimal Mg^2+ for ribozyme activity ([2]; cell-free cleavage) [mM] | period over which ribozyme remained active ([2]; cell-free cleavage) [h] | temperature at which ribozyme is most effective ([2]; cell-free cleavage) [°C] | temperature range over which ribozyme is active [2, 3] | cleavage activity on rat MT-II cRNA [2] | optimal Mg^2+ for ribozyme activity ([1]; cell-free cleavage) [mM] | period over which ribozyme remained active ([1]; cell-free cleavage) [h] | temperature at which ribozyme is most effective ([1]; cell-free cleavage) [°C] | temperature range over which ribozyme is active [1, 3] |
| --- | --- | --- | --- | --- | --- | --- | --- | --- | --- | --- |
| Rz4-9: hammerhead ribozyme, SEQ ID NO:7, designed to cleave MT-II mRNA (CCUCUUUGCACUGAUGAGUCCGUGAGGACGAAAUGCAGCCCU; listed as RNA, chemistry not fully specified) | did not mediate rat MT-I cRNA cleavage | 20 | 16 | 37 | 25-50 °C | cut only rat MT-II cRNAs | – | – | – | – |
| Rz1-2: hammerhead ribozyme, SEQ ID NO:6, designed to cleave mouse and rat MT-I mRNA (GCGCCUUUGCACUGAUGAGUCCGUGAGGACGAAACACAGCCCU; listed as RNA, chemistry not given here) | active | – | – | – | – | no activity | 20 | 16 | 37 | 25-50 °C |
